Data taken from patent US12616203B2, “Use of 3-isoxazolidinones compounds as selective herbicides” (FMC Corporation, priority 2014, dated 2026).

Tests used:
Blackgrass [1] = experiment: Ex34 PRE 2,4-DC + napropamide, % control, Colby; assay type: in vivo, Alopecurus myosuroides; conditions: 28 DAT
Description: (§1) Thereafter flats were watered and fertilized routinely.

Common lambsquarters = experiment: Ex34 PRE 2,4-DC + napropamide, % control, Colby; assay type: in vivo, Chenopodium album; conditions: 28 DAT
Description: as §1

Common ragweed = experiment: Ex16 PRE 2,4-DC + pyroxasulfone, % control 28 DAT, Colby; assay type: in vivo, Ambrosia artemisiifolia
Description: To determine PRE efficacy, five levels of 2,4 DC (36.7% CS) 0, 125, 170, 210, or 250 g ai/ha and five levels of pyroxasulfone (KIH485-85WG) 0, 50, 65, 80, or 95 g ai/ha were applied either alone or as tank-mix. Additional treatments consisted of premix of pyroxasulfone plus fluthiacet-methyl (Anthem™ 23.3%) at 169.9 g ai/ha, S-metolachlor (Dual II Magnum, 82.4%) at 1388 g, and tank-mix of mesotrione (Callisto, 40%) at 123 g plus S-metolachlor at 1252 g. […] Treatments were applied before the emergence of black nightshade, giant foxtail, green foxtail, yellow foxtail, large crabgrass, kochia, redroot pigweed, common ragweed, and barnyardgrass.
Flats were watered and fertilized routinely after treatment application. Each treatment was replicated three times.

Velvetleaf = experiment: Ex33 PRE 2,4-DC + fluthiacet-methyl + pyroxasulfone, % control 28 DAT, Colby; assay type: in vivo, Abutilon theophrasti
Description: ANTHEM® (fluthiacet-methyl, 0.69% plus pyroxasulfone, 22.61%) was included as a standard at labeled rate, Fluthiacet-methyl at 4.9 g ai/ha and pyroxasulfone at 165 g ai/ha. […] The following weeds were screened, Palmer amaranth, Pennsylvania smartweed, velvetleaf, green foxtail, morningglory, Italian ryegrass, prickly sida, and yellow nutsedge. Crops screened were cotton, lentil, mung bean, bush bean, and cowpea. […] Thereafter flats were watered and fertilized routinely.

Common cocklebur = experiment: Ex37 PRE 2,4-DC + atrazine, % control 28 DAT, Colby; assay type: in vivo, Xanthium strumarium
Description: S-metolachlor (DUAL II MAGNUM®, 82.4%) at 525 g ai/h plus atrazine at 560 g ai/h was included as a standard for comparison. […] Thereafter flats were watered and fertilized routinely.

[2] = tested on: sweet corn, yellow corn, and sorghum; conditions: PRE; crop and rate in the words
Description: Treatments were also applied ot sweet corn, yellow corn, and sorghum.
Treatments were applied before the emergence of Jimsonweed, velvetleaf, hairy beggarticks, common cocklebur, barnyardgrass, sweet corn, yellow corn, and sorghum. Plant species were planted in fiber flats (6″×10″) containing Pennington soil and flats were watered well before application and watered lightly after application. Flats were watered and fertilized routinely after treatment application.

weeds; wheat, and corn = experiment: Ex38 PRE greenhouse; assay type: in vivo; conditions: rate in the words
Description: Pyroxasulfone plus fluthiacet-methyl (ANTHEM™, 23.3%) applied at 165 g ai/ha was included as a standard for comparison. […] Thereafter flats were watered and fertilized routinely.

Italian ryegrass (IR) = experiment: Ex2 PRE greenhouse, % control; assay type: in vivo, Lolium perenne. multiflorum; conditions: 28 DAT, g ai/ha by row: r12-40 2,4-DC 31.25/62.5/125/250/375 (3 rows each) + metazachlor 250/500/750 (cycling)
Description: Test compositions containing 2,4 DC Example 1B and metazachlor (Butisan® S, 43.1% active ingredient, BASF) and mixtures of 2-(2,4-dichlorophenyl)methyl-4,4-dimethyl-3-isoxazolidinone and metazachlor, were diluted with water to provide the appropriate test rate concentrations.
The test crops were wheat and canola (Brassica napus), the test weeds were Italian ryegrass (IR) (Lolium perenne. multiflorum), annual bluegrass (AB) (Poa annua), common lambsquarters (CL) (Chenopodium album), littleseed canarygrass (LC) (Phalaris minor), common chickweed (CC) (Stellaria media), and corn poppy (CP) (Papaver rhoeas).
For pre-emergence testing, four disposable fiber flats (6″ by 10″) for each rate of application of each herbicide solution were filled with top soil, to which seeds of each species were planted in furrows made by a template pressed on the top of the soil. The furrows were covered with soil after planting the seed and were watered well before application of the test compounds.
Fiber flats designated for treatment were placed in a spray chamber having a static platform and a movable sprayer and height of the spray nozzle was 10.5 inches above the soil level. Once the sprayer was calibrated using water for spray volume of 30 gallons per acre, flats were sprayed with sprayer at a speed to receive a coverage equivalent of 30 gallons per acre. The application rates are those shown in Table 1 below for the individual herbicidal solutions and the herbicide compositions of the present invention. The pre-emergence flats were immediately placed in the greenhouse and watered lightly after treatment. Thereafter they were regularly watered and fertilized for the duration of the test.
The control of weeds was evaluated in each experimental test at 21 days after treatment (DAT) for corn poppy and wheat and 28 DAT for all other species. The results, shown as an average of the replications were compared with results observed in untreated control flats in the same tests.
Percent control was determined by a method similar to the 0 to 100 rating system disclosed in “Research Methods in Weed Science,” 2nd ed., B. Truelove, Ed.; Southern Weed Science Society; Auburn University, Auburn, Ala., 1977.

Yellow nutsedge = experiment: Ex32 PRE 2,4-DC + pyroxasulfone + sulfentrazone, % control 28 DAT, Colby; assay type: in vivo, Cyperus esculentus
Description: Treatments were applied at the time of planting to Italian ryegrass, green foxtail, littleseed canarygrass, wild oat, quackgrass, dandelion, common chickweed, white clover, yellow nutsedge, redroot pigweed, field bindweed, canola, and wheat. […] Flats were watered and fertilized routinely after treatment application.

Blackgrass [3] = experiment: Ex13 PRE 2,4-DC + diflufenican, % control 28 DAT, Colby; assay type: in vivo, Alopecurus myosuroides
Description: Pyroxasulfone (KIH-485, 85%) at 74.3 g ai/ha, pendimethalin (Prowl 3.3EC, 37.4%) at 1200 g ai/ha, or a premix of chlorsulfuron plus metsulfuron-methyl (Report Extra, 75%) at 15.8 g ai/ha were applied as commercial standards. […] Treatments were replicated 3 times and flats were watered after planting before the treatment and lightly watered after treatment application. Thereafter flats were watered and fertilized routinely.

`CC1(C)CON(Cc2ccc(Cl)cc2Cl)C1=O` [2,4-DC, 2-(2,4-dichlorophenyl)methyl-4,4-dimethyl-3-isoxazolidinone] showed an X (Blackgrass [1]; 2,4-DC alone 31 g ai/ha) of 10%, an X (Blackgrass [1]; 2,4-DC alone 63 g ai/ha) of 18% and an X (Blackgrass [1]; 2,4-DC alone 125 g ai/ha) of 84%. The X (Blackgrass [1]; 2,4-DC alone 250 g ai/ha) was 93%, the X (Blackgrass [1]; 2,4-DC alone 375 g ai/ha) was 97% and the X (Common lambsquarters; 2,4-DC alone 31 g ai/ha) was 28%. For the same molecule, the X (Common lambsquarters; 2,4-DC alone 63 g ai/ha) was 43%, the X (Common lambsquarters; 2,4-DC alone 125 g ai/ha) was 85% and the X (Common lambsquarters; 2,4-DC alone 250 g ai/ha) was 91%. For the same molecule, the X (Common lambsquarters; 2,4-DC alone 375 g ai/ha) was 93%, the X (Common ragweed; 2,4-DC alone 125 g ai/ha) was 33% and the X (Common ragweed; 2,4-DC alone 170 g ai/ha) was 40%. It also gave an X (Common ragweed; 2,4-DC alone 210 g ai/ha) of 40%, an X (Common ragweed; 2,4-DC alone 250 g ai/ha) of 45% and an X (Velvetleaf; 2,4-DC alone 31 g ai/ha) of 7%. For the same molecule, the X (Velvetleaf; 2,4-DC alone 63 g ai/ha) was 23%, the X (Velvetleaf; 2,4-DC alone 125 g ai/ha) was 27% and the X (Velvetleaf; 2,4-DC alone 250 g ai/ha) was 30%. It also gave an X (Velvetleaf; 2,4-DC alone 375 g ai/ha) of 89%, an X (Common cocklebur; 2,4-DC alone 50 g ai/ha) of 0% and an X (Common cocklebur; 2,4-DC alone 100 g ai/ha) of 7%. For the same molecule, the X (Common cocklebur; 2,4-DC alone 200 g ai/ha) was 60%, the “crop safety in words” value [2] was “alone was safe on sweet corn and sorghum at the lowest rate while safe on yellow corn at 50 or 100 g ai/ha” and the “weed control / crop safety in words” value (weeds; wheat, and corn) was “applied alone at ≥50 g ai/ha controlled (≥85%) kochia, at ≥200 g controlled Italian ryegrass or redroot pigweed, and controlled velvetleaf at 400 g”. For the same molecule, the “% Control IR” value (Italian ryegrass (IR); r42-46 2,4-DC 31.25/62.5/125/250/375, r47-49 metazachlor 250/500/750, 31.25 g ai/ha) was 57%, the “% Control IR” value (Italian ryegrass (IR); r42-46 2,4-DC 31.25/62.5/125/250/375, r47-49 metazachlor 250/500/750, 62.5 g ai/ha) was 68% and the “% Control IR” value (Italian ryegrass (IR); r42-46 2,4-DC 31.25/62.5/125/250/375, r47-49 metazachlor 250/500/750, 125 g ai/ha) was 85%. For the same molecule, the “% Control IR” value (Italian ryegrass (IR); r42-46 2,4-DC 31.25/62.5/125/250/375, r47-49 metazachlor 250/500/750, 250 g ai/ha) was 98%, the “% Control IR” value (Italian ryegrass (IR); r42-46 2,4-DC 31.25/62.5/125/250/375, r47-49 metazachlor 250/500/750, 375 g ai/ha) was 99% and the X (Yellow nutsedge; 2,4-DC alone 50 g ai/ha) was 0%. It also gave an X (Yellow nutsedge; 2,4-DC alone 100 g ai/ha) of 0%, an X (Yellow nutsedge; 2,4-DC alone 200 g ai/ha) of 17% and an X (Blackgrass [3]; 2,4-DC alone 125 g ai/ha) of 23%. For the same molecule, the X (Blackgrass [3]; 2,4-DC alone 170 g ai/ha) was 53%, the X (Blackgrass [3]; 2,4-DC alone 210 g ai/ha) was 66% and the X (Blackgrass [3]; 2,4-DC alone 250 g ai/ha) was 68%.
